Results from US7968591B2, “1,3-disubstituted 4-methyl-1H-pyrrole-2-carboxamides and their use in medicaments” (Gruenenthal GmbH, priority 2006, dated 2011).

System: batrachotoxin (BTX) binding site of the sodium channel
Assay: Affinity for the batrachotoxin (BTX) binding site of the sodium channel
Conditions: rat cerebrocortex synaptosomes, [3H]-Batrachotoxinin A20α benzoate 10 nM

Row | SMILES | BTX (Na+ channel) (% inhibition at 10 μM)
1 | COc1ccc(-c2c(C)cn(Cc3ccc(F)cc3)c2C(=O)NCCc2cccs2)cc1 [Example 35, 1-(4-fluorobenzyl)-3-(4-methoxyphenyl)-4-methyl-1H-pyrrole-2-carboxylic acid (2-thiophen-2-ylethyl)-amide] | 48%
2 | Cc1cn(Cc2ccc(C(F)(F)F)cc2)c(C(=O)NCCN2CCCC2)c1-c1ccco1 [Example 38, 3-furan-2-yl-4-methyl-1-(4-trifluoromethylbenzyl)-1H-pyrrole-2-carboxylic acid (2-pyrrolidin-1-ylethyl)-amide] | 94%
3 | COc1ccc(Cn2cc(C)c(-c3ccc(C)cc3)c2C(=O)N(C)CC(=O)OCc2ccccc2)cc1 [Example 39, {[1-(4-methoxybenzyl)-4-methyl-3-p-tolyl-1H-pyrrole-2-carbonyl]-methylamino}-acetic acid benzyl ester] | 74%
4 | COc1ccc(Cn2cc(C)c(-c3ccco3)c2C(=O)NCCC2CCCN2C)cc1 (stereo not shown) [Example 40, 3-furan-2-yl-1-(4-methoxybenzyl)-4-methyl-1H-pyrrole-2-carboxylic acid [2-(1-methylpyrrolidin-2-yl)-ethyl]-amide] | 81%
5 | CCOc1ccc(Br)cc1CN1CCN(C(=O)c2c(-c3ccccc3)c(C)cn2C)CC1 [Example 41, [4-(5-bromo-2-ethoxybenzyl)-piperazin-1-yl]-(1,4-dimethyl-3-phenyl-1H-pyrrol-2-yl)-methanone] | 77%
6 | COc1ccc(CN2CCN(C(=O)c3c(-c4ccco4)c(C)cn3Cc3ccccc3)CC2)cc1F [Example 42, (1-benzyl-3-furan-2-yl-4-methyl-1H-pyrrol-2-yl)-[4-(3-fluoro-4-methoxybenzyl)-piperazin-1-yl]-methanone] | 88%
7 | CCn1cc(C)c(-c2ccc(Cl)cc2)c1C(=O)NCCC(=O)OC(C)(C)C [Example 43, 3-{[3-(4-chlorophenyl)-1-ethyl-4-methyl-1H-pyrrole-2-carbonyl]-amino}-propionic acid tert.-butyl ester] | 31%
8 | COc1cccc(CNC(=O)c2c(-c3ccccc3)c(C)cn2Cc2ccccc2)c1 [Example 44, 1-benzyl-4-methyl-3-phenyl-1H-pyrrole-2-carboxylic acid 3-methoxybenzylamide] | 47%
9 | CCOc1ccc(Br)cc1CN1CCN(C(=O)c2c(-c3ccco3)c(C)cn2Cc2ccccc2)CC1 [Example 45, (1-benzyl-3-furan-2-yl-4-methyl-1H-pyrrol-2-yl)-[4-(5-bromo-2-ethoxybenzyl)-piperazin-1-yl]-methanone] | 89%
10 | Cc1ccccc1N1CCN(C(=O)c2c(-c3ccc(Cl)cc3)c(C)cn2C)CC1 [Example 46, [3-(4-chlorophenyl)-1,4-dimethyl-1H-pyrrol-2-yl]-(4-o-tolylpiperazin-1-yl)-methanone] | 55%
11 | CCOc1ccc(CCNC(=O)c2c(-c3ccc(OC)cc3)c(C)cn2Cc2ccc(F)cc2)cc1 [Example 47, 1-(4-fluorobenzyl)-3-(4-methoxyphenyl)-4-methyl-1H-pyrrole-2-carboxylic acid [2-(4-ethoxyphenyl)-ethyl]-amide] | 55%
12 | Cc1ccc(-c2c(C)cn(Cc3c(Cl)cccc3Cl)c2C(=O)N2CCC(O)CC2)cc1 [Example 48, [1-(2,6-dichlorobenzyl)-4-methyl-3-p-tolyl-1H-pyrrol-2-yl]-(4-hydroxypiperidin-1-yl)-methanone] | 36%
13 | COc1cc(OC)c(CN2CCN(C(=O)c3c(-c4ccc(C)cc4)c(C)cn3C)CC2)c(OC)c1 [Example 49, (1,4-dimethyl-3-p-tolyl-1H-pyrrol-2-yl)-[4-(2,4,6-trimethoxybenzyl)-piperazin-1-yl]-methanone] | 89%
14 | Cc1cn(Cc2ccc(F)cc2)c(C(=O)NCCN2CCOCC2)c1-c1ccco1 [Example 50, 1-(4-fluorobenzyl)-3-furan-2-yl-4-methyl-1H-pyrrole-2-carboxylic acid (2-morpholin-4-ylethyl)-amide] | 77%
15 | Cc1cn(Cc2ccccc2)c(C(=O)NCCc2ccc(F)cc2)c1-c1ccc(Cl)cc1 [Example 51, 1-benzyl-3-(4-chlorophenyl)-4-methyl-1H-pyrrole-2-carboxylic acid [2-(4-fluorophenyl)-ethyl]-amide] | 43%
16 | COc1ccc(-c2c(C)cn(C)c2C(=O)N2CCN(c3cc(C)ccc3C)CC2)cc1 [Example 52, [4-(2,5-dimethylphenyl)-piperazin-1-yl]-[3-(4-methoxyphenyl)-1,4-dimethyl-1H-pyrrol-2-yl]-methanone] | 76%
17 | COc1ccc(-c2c(C)cn(C)c2C(=O)NCCCn2ccnc2)cc1 [Example 53, 3-(4-methoxyphenyl)-1,4-dimethyl-1H-pyrrole-2-carboxylic acid (3-imidazol-1-ylpropyl)-amide] | 44%

Row | SMILES | BTX (Na+ channel) (% inhibition at 10 μM)
18 | COc1ccc(-c2c(C)cn(Cc3ccc(F)cc3)c2C(=O)NCCc2cccc(C(F)(F)F)c2)cc1 [Example 54, 1-(4-fluorobenzyl)-3-(4-methoxyphenyl)-4-methyl-1H-pyrrole-2-carboxylic acid [2-(3-trifluoromethylphenyl)-ethyl]-amide] | 42%
19 | Cc1cnc(C(=O)N2CCN(C(=O)c3c(-c4ccc(Cl)cc4)c(C)cn3Cc3ccccc3F)CC2)cn1 [Example 55, [3-(4-chlorophenyl)-1-(2-fluorobenzyl)-4-methyl-1H-pyrrol-2-yl]-[4-(5-methylpyrazin-2-carbonyl)-piperazin-1-yl]-methanone] | 44%
20 | Cc1cn(C)c(C(=O)N2CCN(c3ccncc3)CC2)c1-c1ccc(Cl)cc1 [Example 57, [3-(4-chlorophenyl)-1,4-dimethyl-1H-pyrrol-2-yl]-(4-pyridin-4-ylpiperazin-1-yl)-methanone] | 76%
21 | Cc1cn(Cc2ccccc2F)c(C(=O)NCCCn2ccnc2)c1-c1ccc(Cl)cc1 [Example 58, 3-(4-chlorophenyl)-1-(2-fluorobenzyl)-4-methyl-1H-pyrrole-2-carboxylic acid (3-imidazol-1-ylpropyl)-amide] | 93%
22 | COc1ccc(CN2CCN(C(=O)c3c(-c4ccccc4)c(C)cn3C)CC2)cc1F [Example 59, (1,4-dimethyl-3-phenyl-1H-pyrrol-2-yl)-[4-(3-fluoro-4-methoxybenzyl)-piperazin-1-yl]-methanone] | 75%
23 | Cc1cn(C)c(C(=O)N2CCN(C3CCCCCC3)CC2)c1-c1ccco1 [Example 61, (4-cycloheptylpiperazin-1-yl)-(3-furan-2-yl-1,4-dimethyl-1H-pyrrol-2-yl)-methanone] | 64%
24 | COc1ccc(OCCNC(=O)c2c(-c3ccccc3)c(C)cn2Cc2ccccc2)cc1 [Example 62, 1-benzyl-4-methyl-3-phenyl-1H-pyrrole-2-carboxylic acid [2-(4-methoxyphenoxy)-ethyl]-amide] | 50%
25 | Cc1cn(Cc2ccc(F)cc2)c(C(=O)NCCCN(C)C)c1-c1ccco1 [Example 63, 1-(4-fluorobenzyl)-3-furan-2-yl-4-methyl-1H-pyrrole-2-carboxylic acid (3-dimethylamino-propyl)-amide] | 75%
26 | COc1ccc(-c2c(C)cn(Cc3ccc(F)cc3)c2C(=O)N2CCCC2CN2CCCC2)cc1 (stereo not shown) [Example 64, [1-(4-fluorobenzyl)-3-(4-methoxyphenyl)-4-methyl-1H-pyrrol-2-yl]-(2-pyrrolidin-1-ylmethylpyrrolidin-1-yl)-methanone] | 96%
27 | CCN(CC)CCCNC(=O)c1c(-c2ccc(Cl)cc2)c(C)cn1CC(C)C [Example 65, 3-(4-chlorophenyl)-1-isobutyl-4-methyl-1H-pyrrole-2-carboxylic acid (3-diethylamino-propyl)-amide] | 88%
28 | COc1ccc(F)c(CN2CCN(C(=O)c3c(-c4ccc(Cl)cc4)c(C)cn3C)CC2)c1 [Example 66, [3-(4-chlorophenyl)-1,4-dimethyl-1H-pyrrol-2-yl]-[4-(2-fluoro-5-methoxybenzyl)-piperazin-1-yl]-methanone] | 73%
29 | CCCCn1cc(C)c(-c2ccc(C)cc2)c1C(=O)N1CCN(Cc2cc(OC)ccc2OC)CC1 [Example 68, (1-butyl-4-methyl-3-p-tolyl-1H-pyrrol-2-yl)-[4-(2,5-dimethoxybenzyl)-piperazin-1-yl]-methanone] | 84%
30 | CCN(CC)CCN1CCN(C(=O)c2c(-c3ccc(C)cc3)c(C)cn2Cc2ccc(C)cc2)CC1 [Example 69, [4-(2-diethylamino-ethyl)-piperazin-1-yl]-[4-methyl-1-(4-methylbenzyl)-3-p-tolyl-1H-pyrrol-2-yl]-methanone] | 91%
31 | COc1ccc(-c2c(C)cn(C)c2C(=O)N2CCN(c3cccc(Cl)c3)CC2)cc1 [Example 70, [4-(3-chlorophenyl)-piperazin-1-yl]-[3-(4-methoxyphenyl)-1,4-dimethyl-1H-pyrrol-2-yl]-methanone] | 59%
32 | Cc1cn(Cc2ccccc2Br)c(C(=O)N2CCN(C(C)C)CC2)c1-c1ccc(Cl)cc1 [Example 71, [1-(2-bromobenzyl)-3-(4-chlorophenyl)-4-methyl-1H-pyrrol-2-yl]-(4-isopropylpiperazin-1-yl)-methanone] | 83%
33 | COc1ccc(-c2c(C)cn(Cc3ccc(F)cc3)c2C(=O)N2CCN(CCN(C)C)CC2)cc1 [Example 72, [4-(2-dimethylamino-ethyl)-piperazin-1-yl]-[1-(4-fluorobenzyl)-3-(4-methoxyphenyl)-4-methyl-1H-pyrrol-2-yl]-methanone] | 81%
34 | COc1ccc(CNC(=O)c2c(-c3ccc(Cl)cc3)c(C)cn2Cc2ccccc2F)c(OC)c1 [Example 73, 3-(4-chlorophenyl)-1-(2-fluorobenzyl)-4-methyl-1H-pyrrole-2-carboxylic acid 2,4-dimethoxybenzylamide] | 49%
